These results are taken from patent publication US4348393A, “N-Aryl oxazolidinones, oxazolidinethiones, pyrrolidinones, pyrrolidines and thiazolidinones” (Delalande S.A., priority 1978, dated 1982).

A short description of data set [1]: Toxicity LD50 mouse. Particulars: in vivo, po, read-out: Toxicity LD 50.
Data set [2] has as its system ptosis observed one hour after reserpine. Briefly: Test B: antagonism of reserpine-induced ptosis in mice. Particulars: Mus musculus, 1 h, po, antagonism of ptosis one hour after reserpine 2 mg/kg intravenous, read-out: Test B ED 50. The class given is in vivo. On the procedure: Test B: Antagonism with respect to the ptosis observed one hour after an intravenous injection (2 mg/kg) of reserpine given to mice, following the protocol described by C.

In data set [3] the test system is generalized trembling caused by dl-5-hydroxytryptophane. The experiment in a line: Test A: potentiation in mice of generalized trembling caused by dl-5-hydroxytryptophane. The class given is in vivo. The settings on record: Mus musculus, po, mice, potentiation of trembling by dl-5-hydroxytryptophane 200 mg/kg interperitoneal, read-out: Test A ED 50. How it is done:
Test A: Potentiation in mice of generalized trembling caused by an interperitoneal injection (200 mg/kg) of dl-5-hydroxytryptophane, following the protocol described by C. GOURET and G. RAYNAUD in J. Pharmacol. (Paris), (1974), 5, 231.

As to `O=C(COc1ccccc1)OCC1CN(c2ccc(OCc3cccc([N+](=O)[O-])c3)cc2)C(=O)O1` (stereo not drawn) [compound 178], the LD50 in data set [1] was above 1000 mg/kg. The values for the ED50 in data set [2] and in data set [3] were 28 mg/kg and 33 mg/kg, respectively.

For the compound `CCC(=O)OCC1CN(c2ccc(OCc3ccccc3)cc2)C(=O)O1` (stereo not drawn) [compound 24], the LD50 in data set [1] is above 2000 mg/kg. Besides, the ED50 was 12.5 mg/kg in data set [2] and 9 mg/kg in data set [3].

Take `CC(C)NCC1CN(c2ccc(OCc3cccc([N+](=O)[O-])c3)cc2)C(=O)O1` (stereo not drawn) [compound 201]: in data set [1], the LD50 is above 1000 mg/kg. The ED50 in data set [2] was determined as 6.8 mg/kg; in data set [3], 7.4 mg/kg.

`COCC1CN(c2ccc(OCCCCCl)cc2)C(=O)O1` (stereo not drawn) [compound 234]: the LD50 in data set [1] is above 1000 mg/kg. Also, the ED50 in data set [2] came out at 4 mg/kg; in data set [3] it was 0.6 mg/kg.

In the case of `COCC1CN(c2ccc(OCC3CCCOC3)cc2)C(=O)O1` (stereo not drawn) [compound 182], in data set [1], the LD50 was above 1000 mg/kg. The ED50 in data set [2] turned out to be 5.8 mg/kg; in data set [3], 3.7 mg/kg.

For the compound `N#CCCCOc1ccc(N2CC(CO)OC2=S)cc1` (stereo not drawn) [compound 212], the LD50 in data set [1] amounted to 1000 mg/kg. Further, the ED50 in data set [2] is 12 mg/kg; in data set [3] it was 4.3 mg/kg.

For `COCC1CN(c2ccc(/C=C/c3ccccc3)cc2)C(=O)O1` (stereo not drawn) [compound 187], in data set [1], the LD50 is above 1000 mg/kg. In addition, the ED50 in data set [2] came to 1.3 mg/kg; in data set [3], 2.7 mg/kg.

On to `COCC1CN(c2ccc(CCc3ccccc3)cc2)C(=O)O1` (stereo not drawn) [compound 192], for which the LD50 in data set [1] is above 1000 mg/kg. The ED50 in data set [2] is 6 mg/kg; in data set [3] it was 5.8 mg/kg.

As for `COCC1CN(c2ccc(OCc3cc(C#N)cc([N+](=O)[O-])c3)cc2)C(=O)O1` (stereo not drawn) [compound 161], in data set [1], the LD50 was above 2000 mg/kg. Moreover, the ED50 in data set [2] was 0.36 mg/kg; in data set [3], 1.1 mg/kg.

In the case of `OCC1CCN(c2ccc(OCc3ccccc3)cc2)C1` (stereo not drawn) [compound 220, N-parabenzyloxyphenyl hydroxymethyl-3 pyrrolidine], in data set [1], the LD50 is above 1000 mg/kg. The ED50 in data set [2] and in data set [3] was 50 mg/kg in each case.

As for `CNCC1CN(c2ccc(OCc3cccc([N+](=O)[O-])c3)cc2)C(=O)O1` (stereo not drawn) [compound 85], the LD50 in data set [1] stood at 1000 mg/kg. Also, the ED50 amounted to 2 mg/kg in data set [2] and 3 mg/kg in data set [3].

With `O=C1OC(CN2CCOCC2)CN1c1ccc(OCc2cccc([N+](=O)[O-])c2)cc1` (stereo not drawn) [compound 202], the LD50 in data set [1] was above 1000 mg/kg. The ED50 in data set [2] and in data set [3] was 10 mg/kg throughout.

As for `CCOCC1CN(c2ccc(OCc3cccc([N+](=O)[O-])c3)cc2)C(=S)O1` (stereo not drawn) [compound 216], the LD50 in data set [1] came out at 1000 mg/kg. Besides, the ED50 amounted to 3 mg/kg in data set [2] and 5 mg/kg in data set [3].

Take `NCC1CN(c2ccc(OCc3cc(Cl)cc([N+](=O)[O-])c3)cc2)C(=O)O1` (stereo not drawn) [compound 207]: the LD50 in data set [1] was above 1000 mg/kg. Also, the ED50 in data set [2] came to 7.6 mg/kg; in data set [3] it was 9.1 mg/kg.

Turning to `COCC1CN(c2ccc(OCc3cccc([N+](=O)[O-])c3)cc2)C(=O)O1` (stereo not drawn) [compound 61, para (meta-nitrobenzyloxy) phenyl-3 methoxymethyl-5 oxazolidinone-2], the LD50 in data set [1] is 1500 mg/kg. Moreover, the ED50 in data set [2] was 0.1 mg/kg; in data set [3], 0.08 mg/kg.

Consider `COCC1CN(c2ccc(OCC3CCC3)cc2)C(=O)O1` (stereo not drawn) [compound 183], for which the LD50 in data set [1] was above 1000 mg/kg. The ED50 in data set [2] was 2.4 mg/kg; in data set [3], 1.9 mg/kg.
